{"source": "patent US4803080A", "about": "(BYK Gulden Lomberg Chemische Fabrik, priority 1984, dated 1989)", "origin": "cited, not measured here"}
{"smiles": "Cn1c(=O)c2[nH]cnc2n(C)c1=O", "note": "[Theophylline, 1,3-dimethylxanthine]", "values": [{"measurement": "Serum theophylline levels regarded as toxic range", "setting": "Nolte and Neumann", "value": "more than 20 μg/ml"}, {"measurement": "Absorption from the gastrointestinal tract during the night", "setting": "in vivo", "value": "slowed down during the night"}, {"measurement": "Therapeutic range, plasma levels", "setting": "in vivo", "value": "8-20 mg/1"}]}
